Test results from patent publication US9586949B2, “Aza-heteroaryl compounds as PI3K-gamma inhibitors” (Incyte Corporation, priority 2015, dated 2017).

Legend:
[1] = test system: Phosphorylated Ribosomal Protein S6 (RPS6); assay: THP-1 RPS6 ELISA Assay; assay type: cell-based, Human; conditions: THP-1 cells, serum starved, 2 hours with compound, 10 nM MCP-1 for 15 minutes; read-out: THP p-RPS6 ELISA IC50
Protocol: To measure the Phosphorylated Ribosomal Protein S6 (RPS6) in cell lysates, THP-1 cells (Human Acute Monocytic Leukemia) are purchased from ATCC (Manassas, Va.) and maintained in RPMI with 10% FBS (Gibco/Life Technologies, Carlsbad, Calif.). For the assay, THP-1 cells are serum starved overnight in RPMI, then plated in RPMI (2×10^5 cells/well in 90 μL) into 96-well flat-bottom tissue culture treated plates (Corning, Corning, N.Y.), in the presence or absence of a concentration range of test compounds. Covered plates are incubated for 2 hours at 37° C., 5% CO2 then treated with or without 10 nM MCP-1 (MYBioSource, San Diego, Calif.) for 15 minutes at 37° C., 5% CO2. Plates are centrifuged at 1600 RPM and supernatants are removed. Cells are lysed in Lysis Buffer (Cell Signaling, Danvers, Mass.) with Protease Inhibitor (Calbiochem/EMD, Germany), PMSF (Sigma, St Louis Mo.), HALTS (Thermo Fisher, Rockford, Ill.) for 30 min on wet ice. Cell lysates are frozen at −80° C. before testing. The lysates are tested in the Human/Mouse/Rat Phospho-RPS6 ELISA (R&D Systems, Inc. Minn, Minn.). The plate is measured using a microplate reader (SpectraMax M5-Molecular Devices, LLC Sunnyvale, Calif.) set to 450 nm with a wavelength correction of 540. […]

[2] = molecular target: PI3Kδ (p110δ/p85α) Recombinant Human Protein (Homo sapiens (Human), UniProt O00329); assay: PI3Kδ Scintillation Proximity Assay; assay type: biochemical; conditions: 20 μM PIP2, 2 μM ATP, 3.4 nM PI3Kδ, 120 min; read-out: PI3K-delta SPA IC50
Sequence of PI3Kδ (p110δ/p85α) Recombinant Human Protein (O00329 whole entry): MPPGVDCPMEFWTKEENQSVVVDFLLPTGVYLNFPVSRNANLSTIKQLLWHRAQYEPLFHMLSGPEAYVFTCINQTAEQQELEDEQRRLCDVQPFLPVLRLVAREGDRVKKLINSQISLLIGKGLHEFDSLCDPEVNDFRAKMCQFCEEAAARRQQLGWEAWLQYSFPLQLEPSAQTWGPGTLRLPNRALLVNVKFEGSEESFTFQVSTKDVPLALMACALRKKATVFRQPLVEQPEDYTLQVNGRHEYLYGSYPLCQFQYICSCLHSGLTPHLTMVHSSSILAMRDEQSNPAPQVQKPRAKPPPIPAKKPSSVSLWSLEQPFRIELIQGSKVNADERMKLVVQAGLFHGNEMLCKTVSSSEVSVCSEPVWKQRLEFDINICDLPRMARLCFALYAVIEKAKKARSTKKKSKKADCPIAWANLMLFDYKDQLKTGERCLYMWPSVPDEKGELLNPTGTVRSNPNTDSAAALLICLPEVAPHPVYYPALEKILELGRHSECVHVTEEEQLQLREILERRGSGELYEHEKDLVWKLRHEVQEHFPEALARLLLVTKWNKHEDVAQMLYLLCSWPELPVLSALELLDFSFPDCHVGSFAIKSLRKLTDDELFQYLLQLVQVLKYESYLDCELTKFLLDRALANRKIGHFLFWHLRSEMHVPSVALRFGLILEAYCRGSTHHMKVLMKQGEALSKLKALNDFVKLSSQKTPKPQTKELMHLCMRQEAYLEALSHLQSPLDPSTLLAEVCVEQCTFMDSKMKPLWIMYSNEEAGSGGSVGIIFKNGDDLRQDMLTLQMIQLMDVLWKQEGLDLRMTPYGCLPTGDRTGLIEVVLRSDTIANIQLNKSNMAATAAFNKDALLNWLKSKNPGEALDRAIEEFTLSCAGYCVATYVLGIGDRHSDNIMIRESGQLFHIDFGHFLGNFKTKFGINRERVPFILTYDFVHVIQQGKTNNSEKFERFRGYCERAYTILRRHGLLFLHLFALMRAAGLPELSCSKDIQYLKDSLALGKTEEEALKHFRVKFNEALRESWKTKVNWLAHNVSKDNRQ
Sequence of PI3Kδ (p110δ/p85α) Recombinant Human Protein (P27986 whole entry partner): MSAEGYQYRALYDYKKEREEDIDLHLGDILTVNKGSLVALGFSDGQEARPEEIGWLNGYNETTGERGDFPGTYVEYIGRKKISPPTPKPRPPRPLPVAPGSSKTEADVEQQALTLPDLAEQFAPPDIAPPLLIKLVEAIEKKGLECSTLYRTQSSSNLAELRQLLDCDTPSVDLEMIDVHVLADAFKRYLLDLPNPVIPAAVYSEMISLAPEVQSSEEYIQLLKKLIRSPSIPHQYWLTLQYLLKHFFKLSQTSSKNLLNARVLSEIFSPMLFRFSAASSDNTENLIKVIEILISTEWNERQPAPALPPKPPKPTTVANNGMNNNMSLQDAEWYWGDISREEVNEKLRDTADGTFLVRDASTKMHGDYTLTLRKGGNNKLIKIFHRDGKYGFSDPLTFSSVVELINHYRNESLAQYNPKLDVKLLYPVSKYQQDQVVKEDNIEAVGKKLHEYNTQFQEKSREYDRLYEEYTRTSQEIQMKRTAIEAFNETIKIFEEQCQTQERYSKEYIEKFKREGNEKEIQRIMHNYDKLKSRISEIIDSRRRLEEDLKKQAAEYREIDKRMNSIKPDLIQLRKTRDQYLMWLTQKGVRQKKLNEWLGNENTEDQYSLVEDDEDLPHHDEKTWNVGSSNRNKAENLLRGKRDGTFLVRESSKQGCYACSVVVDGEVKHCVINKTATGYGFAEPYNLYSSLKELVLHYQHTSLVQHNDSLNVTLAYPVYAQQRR

“N-(5-(2-(1H- Benzo[d]imidazol-2- yl)benzo[d]oxazol- 6-yl)pyridin-3- yl)ethanesulfonamide [Example 18]” showed an IC50 [1] of no less than 5000 nM and an IC50 [2] of less than 1000 nM.
